Reference: patent US20030109418A1, “Methods for identifying compounds for inhibition of neoplastic lesions, and pharmaceutical compositions containing such compounds” (priority 1999, published 2003)
Where a name gives a salt, the structure may show the parent alone.

Assays:
PC-3 = assay: Growth inhibition, neutral red assay, PC-3; type: cell-based, human; settings: free base, five days
Description: (§1) Compound I's activity is not confined to activity against colon cancer cell lines or animal models of colon cancer. It has a broad range of anti-neoplastic effects in various neoplastic cell lines. Various types of human cancer cell lines were propagated under sterile conditions in RPMI 1640 medium with 10% fetal bovine serum, 2 mM L-glutamine and sodium bicarbonate. To determine growth inhibitory effects of Compound I, cells were seeded in 96-well plates at a density of 1000 cells per well. Twenty-four hours after plating, the cells were dosed with various concentrations of the free base of Compound I solubilized in DMSO (final concentration 0.1%). The effect of the drug on tumor cell growth was determined using the neutral red cytotoxicity assay following five days of continuous treatment. Neutral red is a dye that is selectively taken up by viable cells by an ATP-dependent transport mechanism.

MDA-MB-435 = assay: Growth inhibition, neutral red assay, MDA-MB-435; type: cell-based, human; settings: free base, five days
Description: as §1

[1] = tested on: SW-480 colon adenocarcinoma cells; assay: Apoptosis induction determined by morphology, SW-480; type: cell-based, human
Text: (§2) Following treatment with a compound, cultures can be assayed for apoptosis and necrosis by florescent microscopy following labeling with acridine orange and ethidium bromide. The method for measuring apoptotic cell number has previously been described by Duke & Cohen, “Morphological And Biochemical Assays Of Apoptosis,” Current Protocols In Immunology, Coligan et al., eds., 3.17.1-3.17.16 (1992, which is incorporated herein by reference).
(§3) For example, floating and attached cells can be collected by trypsinization and washed three times in PBS. Aliquots of cells can be centrifuged. The pellet can then be re-suspended in media and a dye mixture containing acridine orange and ethidium bromide prepared in PBS and mixed gently. The mixture can then be placed on a microscope slide and examined for morphological features of apoptosis.
In addition, the percent apoptosis for Compound I in SW-480 is shown in Table 12 at various drug concentrations.

Colo 205 = assay: Growth inhibition, neutral red assay, Colo 205; type: cell-based, human; settings: free base, five days
Description: as §1

NCI-H82 = assay: Growth inhibition, neutral red assay, NCI-H82; type: cell-based, human; settings: free base, five days
Description: as §1

DU145 = assay: Growth inhibition, neutral red assay, DU145; type: cell-based, human; settings: free base, five days
Description: as §1

RPMI-8226 = assay: Growth inhibition, neutral red assay, RPMI-8226; type: cell-based; settings: Homo sapiens, HCl salt
Description: as §1

HT-29 = assay: Growth inhibition, neutral red assay, HT-29; type: cell-based, human; settings: free base, five days
Description: as §1

[2] = tested on: new polyps in patients with adenomatous polyposis coli; assay: Clinical prevention trial in APC patients; type: in vivo, human
Text: The first clinical trial involved patients with APC.
using exisulind. In that study, each patient had already had his/her colon removed, except for a small section of colon adjacent the rectum (where the small intestine was attached) to preserve rectal function. However, such a patient commonly forms polyps in the small remaining colonic section, which polyps require periodic removal (e.g., by electrocautery).
That trial where exisulind was selected was a prevention trial designed to evaluate the anti-neoplastic characteristics of the drug by comparing the cumulative number of new polyps formed over twelve months by the drug and placebo groups. Eligible patients were those who form between 9 and 44 polyps per year. Patients were fully ablated (had all polyps removed) at the start of the study, at the end of 6 months and at the end of 12 months. The study enrolled thirty-four eligible patients. […] Based on the median number of polyps produced in the first six months of the study, patients treated with exisulind developed approximately one-third the number of polyps as patients treated with placebo (median values 9 polyps/year and 26 polyps/year, respectively; p=0.013). […]

HT-29 cells = assay: Apoptosis and necrosis by morphology (acridine orange and ethidium bromide); type: cell-based, human; settings: HT-29 treated for six days
Text: Apoptosis occurs naturally during normal tissue turnover and during embryonic development of organs and limbs. Apoptosis also is induced by cytotoxic T-lymphocytes and natural killer cells, by ionizing radiation and by certain chemotherapeutic drugs. Inappropriate regulation of apoptosis is thought to play an important role in many pathological conditions including cancer, AIDS, or Alzheimer's disease, etc. Compounds can be screened for induction of apoptosis using cultures of tumor cells maintained under conditions as described above. Treatment of cells with test compounds involves either pre- or post-confluent cultures and treatment for two to seven days at various concentrations. Apoptotic cells are measured in both the attached and “floating” compartments of the cultures. Both compartments are collected by removing the supernatant, trypsinizing the attached cells, and combining both preparations following a centrifugation wash step (10 minutes, 2000 rpm). The protocol for treating tumor cell cultures with sulindac and related compounds to obtain a significant amount of apoptosis has been described in the literature. (See, Piazza, G. A., et al., Cancer Research, 55:3110-16, 1995, which is incorporated herein by reference). The novel features include collecting both floating and attached cells, identification of the optimal treatment times and dose range for observing apoptosis, and identification of optimal cell culture conditions.
as §2, §3
Reference compounds and test compounds were analyzed for their novel PDE inhibitory activity in accordance with the protocols for the assay, supra. […] Apoptotic and necrotic cell death was determined previously (Duke and Cohen, In: Current Protocols in Immunology, 3.17.1-3.17.16, New York, John Wiley and Sons, 1992). […] All data were collected from the same experiment.
The apoptosis inducing activity for a series of phosphodiesterase inhibitors was determined. HT-29 cell were treated for 6 days with various inhibitors of phosphodiesterase. Apoptosis and necrosis were determined morphologically after acridine orange and ethidium bromide labeling in accordance with the assay described, supra.

Structure (SMILES) | GI50 (PC-3; Homo sapiens, PC-3, 120 h) | GI90 μM, PC-3 (PC-3) | GI50 (MDA-MB-435; Homo sapiens, MDA-MB-435, 120 h) | GI90 μM, MDA-MB-435 (MDA-MB-435) | % Apoptosis ([1]; 0.35 μM) | % Apoptosis ([1]; 0.7 μM) | % Apoptosis ([1]; 1.5 μM) | GI50 (Colo 205; Homo sapiens, COLO 205, 120 h) | GI90 μM, Colo 205 (Colo 205) | GI50 (NCI-H82; Homo sapiens, NCI-H82, 120 h) | GI90 μM, NCI-H82 (NCI-H82) | GI50 (DU145; Homo sapiens, DU-145, 120 h) | GI90 μM, DU145 (DU145) | GI50 (RPMI-8226) | GI50 (HT-29; Homo sapiens, HT-29, 120 h) | GI90 μM, HT-29 (HT-29) | median number of polyps produced, entire 12 months ([2]; entire 12 months of the study) | median number of polyps produced, first six months ([2]; first six months of the study) | apoptotic and necrotic cell death (HT-29 cells)
CC1=C(CC(=O)NCc2ccccc2)c2cc(F)ccc2/C1=C\c1ccncc1 [Compound I, (Z)-5-fluoro-2-methyl-(4-pyridylidene)-3-(N-benzyl)indenylacetamide hydrochloride] | 1.7 µM | 82.5 µM | 1.6 µM | 2.3 µM | 16% | 27% | 88% | 1.6 µM | 2.4 µM | 1.7 µM | 5.8 µM | 1.6 µM | 2.8 µM | 1.2 µM | 2.1 µM | 8.0 µM |  |  | 
CC1=C(CC(=O)O)c2cc(F)ccc2/C1=C\c1ccc(S(C)(=O)=O)cc1 [Exisulind, 5-fluoro-2-methyl-1-(p-methylsulfonylbenzylidene)-3-indenylacetic acid] |  |  |  |  |  |  |  |  |  |  |  |  |  |  |  |  | 18 polyps/year | 9 polyps/year | capable of causing apoptotic cell death without inducing necrosis
